Assay: xn = mol fraction of the nth substance listed, in the solute-free solvent

COC(=O)Nc1nc2ccccc2[nH]1 + CO + O
solubility (g/100 g solution)
Details | 278.15 K | 283.15 K | 288.15 K | 293.15 K | 298.15 K | 303.15 K | 308.15 K | 313.15 K | 318.15 K
x2 = 0.05887 | 0.00186 | 0.00222 | 0.00268 | 0.00321 | 0.00385 | 0.00444 | 0.00519 | 0.00603 | 0.00702
x2 = 0.1235 | 0.00537 | 0.00636 | 0.00764 | 0.00907 | 0.0107 | 0.0124 | 0.0144 | 0.0166 | 0.0191
x2 = 0.1941 | 0.00989 | 0.0117 | 0.0141 | 0.0168 | 0.0198 | 0.0228 | 0.0265 | 0.0306 | 0.0353
x2 = 0.2725 | 0.0136 | 0.0162 | 0.0196 | 0.0233 | 0.0275 | 0.032 | 0.0372 | 0.0432 | 0.0499
x2 = 0.36 | 0.0154 | 0.0185 | 0.0226 | 0.0279 | 0.0321 | 0.0378 | 0.0443 | 0.0516 | 0.06
x2 = 0.4579 | 0.0159 | 0.0192 | 0.0239 | 0.0289 | 0.0343 | 0.0409 | 0.0482 | 0.0567 | 0.0663
x2 = 0.5666 | 0.016 | 0.0196 | 0.0245 | 0.03 | 0.0357 | 0.0432 | 0.0513 | 0.0609 | 0.0717
x2 = 0.6924 | 0.0163 | 0.0203 | 0.0258 | 0.0316 | 0.0381 | 0.0463 | 0.0557 | 0.0664 | 0.0791
x2 = 0.8362 | 0.0175 | 0.0219 | 0.0281 | 0.0347 | 0.0418 | 0.0516 | 0.0624 | 0.075 | 0.0897

Nc1cc(-c2ccncc2)c[nH]c1=O + CO + O
solubility (g/100 g solution)
Details | 278.15 K | 283.15 K | 288.15 K | 293.15 K | 298.15 K | 303.15 K | 308.15 K | 313.15 K | 318.15 K | 323.15 K
x2 = 0.05881 | 0.00167 | 0.00195 | 0.00231 | 0.00269 | 0.00313 | 0.00358 | 0.00409 | 0.00463 | 0.00525 | 0.00594
x2 = 0.1233 | 0.00324 | 0.00377 | 0.00445 | 0.00515 | 0.00595 | 0.00677 | 0.00768 | 0.00865 | 0.00977 | 0.011
x2 = 0.1942 | 0.00545 | 0.00626 | 0.00731 | 0.00841 | 0.00969 | 0.011 | 0.0124 | 0.0141 | 0.0159 | 0.0179
x2 = 0.2727 | 0.00818 | 0.00949 | 0.0111 | 0.0129 | 0.0147 | 0.0167 | 0.0189 | 0.0211 | 0.0237 | 0.0266
x2 = 0.3599 | 0.0113 | 0.013 | 0.0152 | 0.0174 | 0.0201 | 0.0228 | 0.0258 | 0.029 | 0.0326 | 0.0367
x2 = 0.4576 | 0.0147 | 0.0171 | 0.0201 | 0.0232 | 0.0266 | 0.0302 | 0.034 | 0.0381 | 0.0428 | 0.048
x2 = 0.5675 | 0.0183 | 0.0214 | 0.0246 | 0.029 | 0.0331 | 0.0375 | 0.0424 | 0.0475 | 0.0536 | 0.0605
x2 = 0.6923 | 0.0222 | 0.026 | 0.0305 | 0.0355 | 0.0408 | 0.0463 | 0.0524 | 0.0586 | 0.0662 | 0.0743
x2 = 0.835 | 0.0262 | 0.0305 | 0.0355 | 0.0412 | 0.0475 | 0.0545 | 0.0616 | 0.0694 | 0.0789 | 0.0893

O=C1C=CC(=O)N1c1ccccc1Br + CO + O
solubility (g/100 g solution)
Details | 278.15 K | 283.15 K | 288.15 K | 293.15 K | 298.15 K | 303.15 K | 308.15 K | 313.15 K | 318.15 K | 323.15 K
x2 = 0.05881 | 0.58 | 0.746 | 0.94 | 1.19 | 1.47 | 1.83 | 2.25 | 2.74 | 3.31 | 4.02
x2 = 0.1233 | 1.14 | 1.45 | 1.86 | 2.38 | 2.94 | 3.7 | 4.49 | 5.5 | 6.69 | 7.95
x2 = 0.1942 | 2.04 | 2.61 | 3.29 | 4.1 | 5.06 | 6.13 | 7.47 | 9.02 | 10.8 | 12.7
x2 = 0.2727 | 3.47 | 4.29 | 5.27 | 6.48 | 7.79 | 9.34 | 11.1 | 13 | 15.3 | 17.7
x2 = 0.3599 | 4.79 | 5.85 | 7.12 | 8.56 | 10.2 | 12 | 14.3 | 16.5 | 19 | 21.8
x2 = 0.4576 | 6.01 | 7.29 | 8.71 | 10.5 | 12.4 | 14.5 | 16.9 | 19.4 | 22.2 | 25.4
x2 = 0.5675 | 7 | 8.5 | 10.2 | 12.2 | 14.3 | 16.8 | 19.5 | 22.2 | 25.4 | 28.6
x2 = 0.6923 | 7.84 | 9.53 | 11.5 | 13.5 | 16.1 | 18.7 | 21.7 | 24.7 | 28.1 | 31.6
x2 = 0.835 | 8.75 | 10.5 | 12.7 | 14.9 | 17.7 | 20.6 | 23.8 | 27.1 | 30.8 | 34.6

NC(N)=C([N+](=O)[O-])[N+](=O)[O-] + CS(C)=O + CC(=O)CC(C)C
solubility (g/100 g solution)
Details | 293.15 K | 298.15 K | 303.15 K | 308.15 K | 313.15 K | 318.15 K | 323.15 K | 328.15 K | 333.15 K
x2 = 0.1634 | 1.9 | 1.97 | 2.1 | 2.25 | 2.41 | 2.57 | 2.74 | 2.92 | 3.13
x2 = 0.3054 | 5.11 | 5.4 | 5.7 | 5.99 | 6.28 | 6.6 | 6.95 | 7.29 | 7.68
x2 = 0.4297 | 9.16 | 9.64 | 10 | 10.4 | 10.8 | 11.2 | 11.7 | 12.2 | 12.7
x2 = 0.5397 | 13.1 | 13.7 | 14.2 | 14.6 | 15.1 | 15.6 | 16.1 | 16.7 | 17.2
x2 = 0.6375 | 17 | 17.6 | 18.1 | 18.6 | 19 | 19.6 | 20.1 | 20.7 | 21.3
x2 = 0.7251 | 20.2 | 21 | 21.5 | 21.9 | 22.5 | 23.1 | 23.7 | 24.3 | 25
x2 = 0.804 | 23.2 | 23.8 | 24.3 | 24.8 | 25.3 | 25.9 | 26.6 | 27.2 | 27.8
x2 = 0.8755 | 25.6 | 26.3 | 26.8 | 27.2 | 27.8 | 28.4 | 28.9 | 29.6 | 30.2
x2 = 0.9406 | 27.4 | 28.5 | 29 | 29.5 | 30.1 | 30.6 | 31.2 | 31.8 | 32.4

CC1=NNC(=O)N(N=Cc2cccnc2)C1 + CS(C)=O + CC(C)O
solubility (g/100 g solution)
Details | 293.15 K | 298.15 K | 303.15 K | 308.15 K | 313.15 K | 318.15 K
x2 = 0.1614 | 0.482 | 0.555 | 0.623 | 0.721 | 0.847 | 0.956
x2 = 0.3392 | 0.992 | 1.11 | 1.25 | 1.39 | 1.57 | 1.77
x2 = 0.5359 | 1.42 | 1.59 | 1.78 | 2.05 | 2.32 | 2.58
x2 = 0.7549 | 1.8 | 2.01 | 2.28 | 2.59 | 2.91 | 3.28

NC(N)=C([N+](=O)[O-])[N+](=O)[O-] + CS(C)=O + CCC(C)=O
solubility (g/100 g solution)
Details | 293.15 K | 298.15 K | 303.15 K | 308.15 K | 313.15 K | 318.15 K | 323.15 K | 328.15 K | 333.15 K
x2 = 0.1228 | 2.96 | 3.02 | 3.23 | 3.43 | 3.66 | 3.88 | 4.15 | 4.41 | 4.69
x2 = 0.2395 | 6.6 | 7.02 | 7.36 | 7.71 | 8.11 | 8.5 | 8.9 | 9.32 | 9.81
x2 = 0.3506 | 10.8 | 11.4 | 11.7 | 12.2 | 12.7 | 13.1 | 13.6 | 14.2 | 14.8
x2 = 0.4565 | 14.7 | 15.3 | 15.7 | 16.2 | 16.7 | 17.2 | 17.8 | 18.4 | 19
x2 = 0.5575 | 18.4 | 19.1 | 19.6 | 20 | 20.6 | 21.1 | 21.7 | 22.4 | 23
x2 = 0.6539 | 21.6 | 22.1 | 22.7 | 23.2 | 23.8 | 24.4 | 25 | 25.6 | 26.4
x2 = 0.7462 | 24.1 | 24.8 | 25.3 | 25.7 | 26.3 | 26.9 | 27.5 | 28.1 | 28.8
x2 = 0.8344 | 26.2 | 26.7 | 27.2 | 27.7 | 28.2 | 28.8 | 29.4 | 30 | 30.7
x2 = 0.9189 | 27.9 | 28.7 | 29.2 | 29.6 | 30.1 | 30.6 | 31.2 | 31.9 | 32.5

c1ccc2c(c1)CCc1ccccc1N2 + CS(C)=O + O
solubility (g/100 g solution)
Details | x2 = 0.02506 | x2 = 0.0546 | x2 = 0.08995 | x2 = 0.1286 | x2 = 0.1882 | x2 = 0.2567 | x2 = 0.3485 | x2 = 0.4779 | x2 = 0.665
293.15 K | 0.237 | 2.56 | 6.27 | 6.04 | 5.43 | 5.01 | 4.74 | 5.59 | 6.04
298.15 K | 0.323 | 3.31 | 7.85 | 7.49 | 6.85 | 6.32 | 5.77 | 6.8 | 7.23
303.15 K | 0.412 | 4.04 | 9.35 | 8.95 | 8.16 | 7.51 | 6.86 | 8.1 | 8.7
308.15 K | 0.544 | 5.06 | 11.4 | 10.8 | 9.87 | 8.98 | 8.2 | 9.64 | 10.2
313.15 K | 0.69 | 6.11 | 13.3 | 12.7 | 11.6 | 10.5 | 9.62 | 11.2 | 11.7
318.15 K | 0.878 | 7.39 | 15.7 | 14.9 | 13.7 | 12.4 | 11.2 | 12.8 | 13.4
323.15 K | 1.11 | 8.88 | 18.2 | 17.2 | 15.8 | 14.3 | 13 | 14.6 | 15.1
328.15 K | 1.39 | 10.5 | 21 | 19.9 | 18.1 | 16.5 | 14.9 | 16.5 | 17.1

Reference: the CheMixHub drug solubility set
